ChEMBL document CHEMBL1152098, “A new rearranged cholestane glycoside from ornithogalum saundersiae bulbs exhibiting potent cytostatic activities on leukemia HL-60 and molt-4 cells” (Bioorg Med Chem Lett, 1996)

Experiments:
HL-60 = test: Compound was tested for its anticancer activity against HL-60 cells.; format: functional, cell-based; details: Homo sapiens
MOLT-4 = test: Compound was tested for its anticancer activity against human T-lymphocytic leukemia MOLT-4 cells.; format: functional, cell-based

COc1ccc(C(=O)O[C@@H]2[C@H](O)[C@@H](O)[C@H](O[C@@H]3[C@H](O[C@H]4CC[C@@]5(C)C(=CC[C@H]6[C@@H]7C[C@@H]8O[C@@H](O)[C@H](C=C(C)C)[C@]9(C)O[C@@H](OC)C7(CC[C@@H]65)[C@H]89)C4)O[C@@H](CO)[C@@H](O)[C@@H]3O)O[C@H]2C)cc1 (stereo not given in full)
IC50 (HL-60): 0.0092 µM | IC50 (MOLT-4): 0.0032 µM

COc1cc([C@@H]2c3cc4c(cc3[C@@H](O[C@@H]3O[C@@H]5CO[C@@H](C)O[C@H]5[C@H](O)[C@H]3O)[C@H]3COC(=O)[C@H]23)OCO4)cc(OC)c1O [ETOPOSIDE]
IC50 (MOLT-4): 0.038 µM

COc1cccc2c1C(=O)c1c(O)c3c(c(O)c1C2=O)C[C@@](O)(C(=O)CO)C[C@@H]3O[C@H]1C[C@H](N)[C@H](O)[C@H](C)O1 [DOXORUBICIN]
IC50 (MOLT-4): 0.035 µM

CN(Cc1cnc2nc(N)nc(N)c2n1)c1ccc(C(=O)N[C@@H](CCC(=O)O)C(=O)O)cc1 [METHOTREXATE]
IC50 (MOLT-4): 0.048 µM
